Source: patent US11396504B2, “Alkoxybenzo-five-membered (six-membered) heterocyclic amine compound and pharmaceutical use thereof” (FUDAN UNIVERSITY, priority 2018, dated 2022)
pIC50: −log10 of the molar value.

Tests used:
[1] = molecular target: T1, Sphingomyelin Synthase 1 (SMS1 pure enzyme) (Homo sapiens, UniProt Q86VZ5); assay: In vitro SMS1 pure enzyme inhibition, HPLC fluorogenic quantitative detecting method; format: biochemical
T1 construct: Yu, Cao research group of National Protein Science Center (Shanghai)
T1 sequence (Q86VZ5 1-413): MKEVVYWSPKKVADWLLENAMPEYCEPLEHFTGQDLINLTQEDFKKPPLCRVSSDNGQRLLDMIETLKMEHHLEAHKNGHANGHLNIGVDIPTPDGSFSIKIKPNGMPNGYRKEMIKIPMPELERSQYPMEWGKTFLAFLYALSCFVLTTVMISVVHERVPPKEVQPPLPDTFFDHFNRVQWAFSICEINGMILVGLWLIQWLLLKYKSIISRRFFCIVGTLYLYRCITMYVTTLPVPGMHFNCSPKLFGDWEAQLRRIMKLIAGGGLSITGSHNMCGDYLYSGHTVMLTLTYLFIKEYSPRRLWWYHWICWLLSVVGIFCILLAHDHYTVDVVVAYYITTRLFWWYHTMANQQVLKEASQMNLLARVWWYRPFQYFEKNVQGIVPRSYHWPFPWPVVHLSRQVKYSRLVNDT
Description: Referring to the above SMS2 inhibitory activity detection method, and using SMS1 pure enzyme instead of SMS2 pure enzyme for corresponding operation.
(§1) Using the same HPLC fluorogenic quantitative detecting method as reference (Xiaodong Deng; Hong Sun; et al. Analytical Letters, 2012, 45:12, 1581-1589) to analyses samples obtained above. Analysize and record peak areas of C6-NBD-SM (Asm) and C6-NBD-Ceramide (Acer) of each sample from blank group, positive control group (compound D2) and under tested compound group. Calculate inhibition rate from the formula below: […]
Part 4. Determination of SMS1 Median Inhibitory Concentration (IC50) and SMS1 Single Concentration (50 μM) Inhibitory Concentration of Alkoxybenzeno Five- or Six-Member Heterocyclic Amines (Scheme I-1˜I-38)
The experiment can be carried out with the corresponding concentration according to the operation similar to the determination of the median inhibitory concentration (IC50) of SMS2.

[2] = molecular target: T2, Sphingomyelin Synthase 2 (SMS2 pure enzyme) (Homo sapiens, UniProt Q8NHU3); assay: In vitro SMS2 pure enzyme inhibition, HPLC fluorogenic quantitative detecting method (C6-NBD-Ceramide to C6-NBD-SM); format: biochemical; settings: for pIC50: SMS2 pure enzyme, five concentrations, three parallel groups, experimental value; for Selectivity ratio: SMS1 IC50 relative to SMS2 IC50
T2 construct: Yu, Cao research group of National Protein Science Center (Shanghai)
T2 sequence (Q8NHU3 1-365): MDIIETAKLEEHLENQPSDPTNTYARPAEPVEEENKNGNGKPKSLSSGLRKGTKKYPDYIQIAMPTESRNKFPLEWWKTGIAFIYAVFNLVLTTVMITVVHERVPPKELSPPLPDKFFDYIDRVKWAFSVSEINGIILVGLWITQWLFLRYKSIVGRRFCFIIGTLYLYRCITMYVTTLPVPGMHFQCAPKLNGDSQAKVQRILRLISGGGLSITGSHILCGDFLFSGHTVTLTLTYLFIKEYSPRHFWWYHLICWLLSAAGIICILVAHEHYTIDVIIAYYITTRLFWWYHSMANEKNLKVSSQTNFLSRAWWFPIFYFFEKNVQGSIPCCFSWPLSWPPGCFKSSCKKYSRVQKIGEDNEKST
Procedure: Add […] SMS2 pure enzyme DDM solution (total protein content 1.5 μg/μL), 1 μL test compound in DMSO solution or blank DMSO solution, 79.7 μL DDM buffer to 1.5 mL Eppendorf tube, vortex 30 seconds, let stand at room temperature for 5 min. Then add 20 μL DDM buffer containing 1 μL DMPC in ethanol (40 mmol/L) and 1 μL C6-NBD-Ceramide in DMSO (1.16 mmol/L). After vortexing for 30 seconds, Incubate for 0.5 h under water bath at 37° C. Then remove, add 200 μL of absolute ethanol, and vortex for 30 seconds. Take out 200 μL of the mixture and store it at 4° C. for high performance liquid chromatography analysis.
as §1
The DMSO stock solution of under tested compound (6 mM) was diluted stepwise into five concentration gradient. 1 μL solution of each concentration was added into the trial system to prepare samples with the method mentioned in the first step of application case 15. The Asm values of the five concentration solution of tested compound were measured (compound D2 is a positive control), and the inhibition rate under the five concentration were calculated and fitted to obtain median inhibitory concentration (IC50). Each compound was measured three parallel groups. SMS2 median inhibitory concentration and SMS1 single inhibitory concentration (50 μM) of Scheme I-1˜I-38, and SMS1 median inhibitory concentration of some compounds are listed below in Table 1.

Structure (SMILES)	inhibition at 50 µM ([1]; single concentration 50 μM) [%]	pIC50 [2]	pIC50 [1]	Selectivity ratio [2]	SMS1 Inhibition (50 μM) ([1]; single concentration 50 μM) [%]
FC(F)(F)Oc1ccc(COc2cccc3onc(Nc4cccnc4)c23)cc1 [Scheme I-21, 4-((4-Trifluoromethoxybenzyl)oxy)-N-(pyridin-3-yl)benzo[d]-isoxazol-3-amine]	5	< 5.00			
Cn1nc(Nc2cccnc2)c2c(OCc3ccccc3)cccc21 [Scheme I-30, 4-(benzyloxy)-1-methyl-N-(pyridin-3-yl)-1H-indazol-3-amine]	1				
Fc1ccccc1COc1cccc2onc(Nc3cccnc3)c12 [Scheme I-4, 4-((2-fluorobenzyl)oxy)-N-(pyridin-3-yl)benzo[d]isoxazol-3-amine]	6	6.18			
Cc1cccc(C)c1COc1cccc2onc(Nc3cccnc3)c12 [Scheme I-25, 4-((2,6-Dimethylbenzyl)oxy)-N-(pyridin-3-yl)benzo[d]isoxazol-3-amine]	53	6.82	4.33	307	
COc1cccc(COc2cccc3onc(Nc4cccnc4)c23)c1 [Scheme I-17, 4-((3-Methoxybenzyl)oxy)-N-(pyridin-3-yl)benzo[d]isoxazol-3-amine]	17	6.28			
FC(F)(F)c1ccc(COc2cccc3onc(Nc4cccnc4)c23)cc1 [Scheme I-15, 4-((4-Trifluoromethylbenzyl)oxy)-N-(pyridin-3-yl)benzo[d]isoxazole-3-amine]	9	< 5.00			
c1ccc(COc2cccc3snc(Nc4cccnc4)c23)cc1 [Scheme I-31, 4-(benzyloxy)-N-(pyridin-3-yl)benzo[d]isothiazol-3-amine]	13	5.84			
COc1ccccc1COc1cccc2onc(Nc3cccnc3)c12 [Scheme I-16, 4-((2-Methoxybenzyl)oxy)-N-(pyridin-3-yl)benzo[d]isoxazol-3-amine]	49	6.62	4.32	201	
FC(F)(F)c1cccc(COc2cccc3onc(Nc4cccnc4)c23)c1 [Scheme I-14, 4-((3-Trifluoromethylbenzyl)oxy)-N-(pyridin-3-yl)benzo[d]isoxazole-3-amine]	25	6.31			
N#Cc1cccc(COc2cccc3onc(Nc4cccnc4)c23)c1 [Scheme I-23, 4-((3-Cyanobenzyl)oxy)-N-(pyridin-3-yl)benzo[d]isoxazol-3-amine]	8	6.02			
Clc1cccc(COc2cccc3onc(Nc4cccnc4)c23)c1 [Scheme I-8, 4-((3-chlorobenzyl)oxy)-N-(pyridin-3-yl)benzo[d]isoxazol-3-amine]	44	7.03	4.10	840	
Fc1cccc(F)c1COc1cccc2onc(Nc3cccnc3)c12 [Scheme I-27, 4-((2,6-Difluorobenzyl)oxy)-N-(pyridin-3-yl)benzo[d]isoxazol-3-amine]	30	6.14			
O=C(CN1CCCC1)Nc1noc2cccc(OCc3cc(F)ccc3Cl)c12 [Scheme I-36, N-(4-((2-chloro-5-fluorobenzyl)oxy)benzo[d]isoxazol-3-yl)-2-(pyrrolidin-1-y) acetamide]	9	< 5.00			
N#Cc1ccc(COc2cccc3onc(Nc4cccnc4)c23)cc1 [Scheme I-24, 4-((4-Cyanobenzyl)oxy)-N-(pyridin-3-yl)benzo[d]isoxazol-3-amine]	-18				

Continued, values first:

inhibition at 50 µM ([1]; single concentration 50 μM) [%]	pIC50 [2]	pIC50 [1]	Selectivity ratio [2]	SMS1 Inhibition (50 μM) ([1]; single concentration 50 μM) [%]	Structure (SMILES)
29					CN(c1cccnc1)c1noc2cccc(OCc3c(Cl)cccc3Cl)c12 [Scheme I-28, 4-((2,6-dichlorobenzyl)oxy)-N-methyl-N-(pyridin-3-yl)benzo[d]isoxazol-3-amine]
25	7.10	4.15	886		Clc1cccc(Cl)c1COc1cccc2onc(Nc3cccnc3)c12 [Scheme I-26, 4-((2,6-Dichlorobenzyl)oxy)-N-(pyridin-3-yl)benzo[d]isoxazol-3-amine]
3					CN(C)CC(=O)Nc1noc2cccc(OCc3cc(F)ccc3Cl)c12 [Scheme I-34, N-(4-((2-chloro-5-fluorobenzyl)oxy)benzo[d]isoxazol-3-yl)-2-(dimethylamino)acetamide]
5	< 5.00				Clc1ccc(COc2cccc3onc(Nc4cccnc4)c23)cc1 [Scheme I-9, 4-((4-chlorobenzyl)oxy)-N-(pyridin-3-yl)benzo[d]isoxazol-3-amine]
5					Cc1ccc(COc2cccc3onc(Nc4cccnc4)c23)cc1 [Scheme I-12, 4-((4-methylbenzyl)oxy)-N-(pyridin-3-yl)benzo[d]isoxazol-3-amine]
	6.57	4.10	292	41	Clc1ccccc1COc1cccc2onc(Nc3cccnc3)c12 [Scheme I-7, 4-((2-chlorobenzyl)oxy)-N-(pyridin-3-yl)benzo[d]isoxazol-3-amine]
-6	4.89				c1ccc(-c2cc(COc3cccc4onc(Nc5cccnc5)c34)ccn2)cc1 [Scheme I-39, 4-((2-phenylpyridin-4-yl)methoxy)-N-(pyridin-3-yl)benzo[d]isoxazol-3-amine]
18					c1ccc(COc2cccc3ccnc(Nc4cccnc4)c23)cc1 [Scheme I-32, 8-(benzyloxy)-N-(pyridin-3-yl)isoquinolin-1-amine]
60	6.07				Fc1ccc(Cl)c(COc2cccc3onc(Nc4cncnc4)c23)c1 [Scheme I-33, 4-((2-chloro-5-fluorobenzyl)oxy)-N-(pyrimidin-5-yl)benzo[d]isoxazol-3-amine]
20	6.72				Cc1cccc(COc2cccc3onc(Nc4cccnc4)c23)c1 [Scheme I-11, 4-((3-methylbenzyl)oxy)-N-(pyridin-3-yl)benzo[d]isoxazol-3-amine]
59	6.97	4.17	726		FC(F)(F)Oc1ccccc1COc1cccc2onc(Nc3cccnc3)c12 [Scheme I-19, 4-((2-Trifluoromethoxybenzyl)oxy)-N-(pyridin-3-yl)benzo[d]-isoxazol-3-amine]
11	< 5.00				CCN(CC)CC(=O)Nc1noc2cccc(OCc3cc(F)ccc3Cl)c12 [Scheme I-35, N-(4-((2-chloro-5-fluorobenzyl)oxy)benzo[d]isoxazol-3-yl)-2-(diethylamino) acetamide]
-7					c1ccc(COc2cccc3[nH]nc(Nc4cccnc4)c23)cc1 [Scheme I-29, 4-(benzyloxy)-N-(pyridin-3-yl)-1H-indazol-3-amine]
9					CC(C)(C)OC(=O)N1CCC(CCCOc2cccc3onc(Nc4cccnc4)c23)CC1 [Scheme I-40, Tert-Butyl 4-(3-((3-(pyridin-3-ylamino)benzo[d]isoxazol-4-yl)oxy)propyl)piperidine-1-carboxylate]
-5					COc1ccc(COc2cccc3onc(Nc4cccnc4)c23)cc1 [Scheme I-18, 4-((4-Methoxybenzyl)oxy)-N-(pyridin-3-yl)benzo[d]isoxazol-3-amine]
